Source: US9499553B2 (CHUGAI SEIYAKU KABUSHIKI KAISHA, priority 2013, dated 2016)
Read-outs that look alike come from different tables or passages of the source.

Columns and labels:
Format in all cases: cell-based
human PiT-1 = biological target: T1, human PiT-1 (Homo sapiens, UniProt Q8WUM9); test: Inhibitory effect on 33PO4 uptake into human PiT-1-expressing CHO cells; conditions: compound 0.24, 1.2, 6 or 30 μM, pH 6.5, read-out: IC50 against 33PO4 uptake into human PiT-1-expressing cells
T1 construct: expressed in transfected cells; host or cells: CHO cells
T1 sequence (Q8WUM9 1-679): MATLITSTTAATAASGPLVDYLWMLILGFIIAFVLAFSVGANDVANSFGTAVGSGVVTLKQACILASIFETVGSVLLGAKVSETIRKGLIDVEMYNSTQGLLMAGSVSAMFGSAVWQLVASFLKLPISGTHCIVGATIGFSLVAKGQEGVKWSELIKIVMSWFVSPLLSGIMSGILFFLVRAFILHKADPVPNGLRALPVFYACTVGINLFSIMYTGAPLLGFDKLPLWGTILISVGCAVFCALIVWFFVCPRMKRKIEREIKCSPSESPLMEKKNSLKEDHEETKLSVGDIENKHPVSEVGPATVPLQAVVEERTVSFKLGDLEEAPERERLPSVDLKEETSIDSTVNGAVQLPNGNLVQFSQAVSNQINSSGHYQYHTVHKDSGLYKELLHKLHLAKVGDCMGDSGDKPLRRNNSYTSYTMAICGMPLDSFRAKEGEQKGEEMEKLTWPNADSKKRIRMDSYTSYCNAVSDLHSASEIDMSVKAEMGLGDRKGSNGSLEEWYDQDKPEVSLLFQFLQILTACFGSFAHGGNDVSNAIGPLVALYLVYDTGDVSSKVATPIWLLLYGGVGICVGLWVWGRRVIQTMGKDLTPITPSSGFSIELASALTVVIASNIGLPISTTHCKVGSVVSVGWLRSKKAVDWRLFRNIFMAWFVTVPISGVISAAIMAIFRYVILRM
Experimental: Test Example 3: Inhibitory Effect on ^33PO4 Uptake into Human PiT-1-Expressing Cell
(§1) CHO cells were transfected with human PiT-1 expression plasmids or empty vectors to prepare human PiT-1-expressing cells and empty vector-expressing cells. The human PiT-1-expressing cells or the empty vector-expressing cells were inoculated to a 96-well plate and incubated overnight in a CO2 incubator. […] After a given time, a 1/20 volume of buffer A containing ^33PO4 was added thereto and reacted at room temperature. After washing with ice-cold buffer A, a liquid scintillator was added to each reaction mixture, and the amount of ^33PO4 uptake was measured using TopCount. The rate of inhibition was determined according to the following expression: Rate (%) of inhibition=(1−(Amount of ^33PO4 uptake in the compound-supplemented well containing the human PiT-1-expressing cells−Amount of ^33PO4 uptake in the compound-supplemented well containing the empty vector-expressing cells)/(Amount of ^33PO4 uptake in the DMSO-supplemented well containing the human PiT-1-expressing cells −Amount of ^33PO4 uptake in the DMSO-supplemented well containing the empty vector-expressing cells))×100

human NaPi-IIb = biological target: T2, human NaPi-IIb (Homo sapiens, UniProt O95436); test: Inhibitory effect on 33PO4 uptake into human NaPi-IIb-expressing CHO cells
T2 construct: expressed in transfected cells
T2 sequence (O95436 1-690): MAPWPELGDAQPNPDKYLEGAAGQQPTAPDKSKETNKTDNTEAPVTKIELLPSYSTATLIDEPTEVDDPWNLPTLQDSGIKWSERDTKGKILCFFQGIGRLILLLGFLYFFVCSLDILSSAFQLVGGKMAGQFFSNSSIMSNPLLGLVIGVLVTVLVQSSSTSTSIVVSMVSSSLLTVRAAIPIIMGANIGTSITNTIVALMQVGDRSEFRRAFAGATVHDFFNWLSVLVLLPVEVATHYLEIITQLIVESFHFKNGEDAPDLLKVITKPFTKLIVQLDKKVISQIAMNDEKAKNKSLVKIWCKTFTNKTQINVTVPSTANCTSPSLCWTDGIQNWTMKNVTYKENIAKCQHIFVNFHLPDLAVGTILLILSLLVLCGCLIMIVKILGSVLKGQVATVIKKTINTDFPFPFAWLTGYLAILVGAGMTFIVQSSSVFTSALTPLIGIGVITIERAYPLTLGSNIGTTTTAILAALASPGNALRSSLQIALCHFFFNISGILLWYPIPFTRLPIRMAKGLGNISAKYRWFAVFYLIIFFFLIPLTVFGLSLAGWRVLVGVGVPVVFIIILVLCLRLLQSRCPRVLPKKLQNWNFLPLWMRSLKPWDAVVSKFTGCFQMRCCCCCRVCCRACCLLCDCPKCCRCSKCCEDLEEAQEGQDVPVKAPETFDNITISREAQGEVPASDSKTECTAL
Outline: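 Uptake of ³³PO4 was measured by scintillation counting after ice-cold buffer A washes. Cells were CHO stably expressing human NaPi-IIb, seeded overnight, and exposed to ³³PO4 in buffer A at room temperature.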

human PiT-2 = biological target: T3, human PiT-2 (Homo sapiens, UniProt Q08357); test: Inhibitory effect on 33PO4 uptake into human PiT-2-expressing CHO cells; conditions: pH 6.5, read-out: IC50 against 33PO4 uptake into human PiT-2-expressing cells
T3 construct: expressed in transfected cells; host or cells: CHO cells
T3 sequence (Q08357 1-652): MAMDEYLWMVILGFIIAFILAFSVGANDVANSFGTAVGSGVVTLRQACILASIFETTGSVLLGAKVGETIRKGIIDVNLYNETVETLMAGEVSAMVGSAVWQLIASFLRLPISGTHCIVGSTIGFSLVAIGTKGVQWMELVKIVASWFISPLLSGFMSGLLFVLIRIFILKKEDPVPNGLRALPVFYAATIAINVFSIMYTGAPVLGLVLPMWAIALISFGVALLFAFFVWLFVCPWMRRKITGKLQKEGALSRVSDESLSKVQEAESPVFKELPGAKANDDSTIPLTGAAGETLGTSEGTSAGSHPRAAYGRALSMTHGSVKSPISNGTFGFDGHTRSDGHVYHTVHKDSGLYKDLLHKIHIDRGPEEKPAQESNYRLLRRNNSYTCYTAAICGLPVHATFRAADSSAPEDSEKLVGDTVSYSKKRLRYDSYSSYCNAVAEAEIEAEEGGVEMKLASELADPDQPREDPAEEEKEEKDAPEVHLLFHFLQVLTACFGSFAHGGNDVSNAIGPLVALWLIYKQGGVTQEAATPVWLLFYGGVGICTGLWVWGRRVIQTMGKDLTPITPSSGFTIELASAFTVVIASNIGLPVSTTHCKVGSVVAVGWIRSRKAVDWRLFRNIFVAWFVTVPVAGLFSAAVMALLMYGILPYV
Experimental: Test Example 4: Inhibitory Effect on ^33PO4 Uptake into Human PiT-2-Expressing Cell
as §1, with “PiT-2” for “PiT-1”, “PiT-2-expressing” for “PiT-1-expressing”

IC50 (human PiT-1) [µM] | IC50 (human NaPi-IIb; read-out: IC50) [µM] | IC50 (human PiT-2) [µM] | IC50 (human NaPi-IIb; read-out: IC50 against 33PO4 uptake into human NaPi-IIb-expressing cells) [µM] | SMILES
4.6 | 19.4 | 3.8 | – | CN1[C@@H](C(C)(C)C)C(O)=C(C(=O)Nc2ccc(C(F)(F)F)cc2-c2cc(C(F)(F)F)ncn2)C(=O)N1Cc1ccc(OCCN2CCOCC2)c(F)c1F [Example 264, (3S)-3-tert-Butyl-1-[[2,3-difluoro-4-(2-morpholin-4-ylethoxy)phenyl]methyl]-4-hydroxy-2-methyl-6-oxo-N-[4-(trifluoromethyl)-2-[6-(trifluoromethyl)pyrimidin-4-yl]phenyl]-3H-pyridazine-5-carboxamide]
5.6 | 2.8 | 6.2 | – | C[C@]12CCCN1N(Cc1cccc(Cl)c1F)C(=O)C(C(=O)Nc1cc(F)c(Br)c(F)c1)=C2O [Example 196, (4aR)-N-(4-Bromo-3,5-difluorophenyl)-1-[(3-chloro-2-fluorophenyl)methyl]-4-hydroxy-4a-methyl-2-oxo-6,7-dihydro-5H-pyrrolo[1,2-b]pyridazine-3-carboxamide]
4.4 | 21.5 | 8.4 | – | C[C@]12CCCN1N(Cc1ccc(OCCCOC[C@H](O)CO)c(F)c1F)C(=O)C(C(=O)Nc1ccc(C(F)(F)F)cc1-c1ccc(C(F)(F)F)nc1)=C2O [Example 147, (4aR)-1-[[4-[3-[(2R)-2,3-Dihydroxypropoxy)propoxy]-2,3-difluorophenyl]methyl]-4-hydroxy-4a-methyl-2-oxo-N-[4-(trifluoromethyl)-2-[6-(trifluoromethyl)pyridin-3-yl]phenyl]-6,7-dihydro-5H-pyrrolo [1,2-b]pyridazine-3-carboxamide]
1.2 | 7.7 | 1.4 | – | COC[C@@H]1CCCN1CCOc1ccc(CN2C(=O)C(C(=O)Nc3ccc(C(F)(F)F)cc3-c3cc(C(F)(F)F)ncn3)=C(O)C3(CCC3)N2C)c(F)c1F [Example 345, 6-[[2,3-Difluoro-4-[2-[(2S)-2-(methoxymethyl)pyrrolidin-1-yl]ethoxy]phenyl]methyl]-9-hydroxy-5-methyl-7-oxo-N-[4-(trifluoromethyl)-2-[6-(trifluoromethyl)pyrimidin-4-yl]phenyl]-5,6-diazaspiro[3.5]non-8-ene-8-carboxamide]
6.5 | 13.7 | 8.7 | – | C[C@]12CCCN1N(Cc1ccc(C#CCCCC(=O)O)c(F)c1F)C(=O)C(C(=O)Nc1ccc(C(F)(F)F)cc1-c1cc(C(F)(F)F)ncn1)=C2O [Example 129, 6-[4-[[(4aR)-4-Hydroxy-4a-methyl-2-oxo-3-[[4-(trifluoromethyl)-2-[6-(trifluoromethyl)pyrimidin-4-yl]phenyl]carbamoyl]-6,7-dihydro-5H-pyrrolo[1,2-b]pyridazin-1-yl]methyl]-2,3-difluorophenyl]hex-5-ynoic acid]
3.8 | 19.1 | 3.9 | – | C[C@]12CCCN1N(Cc1ccc(OCCN3CCOCC3)c(F)c1F)C(=O)C(C(=O)Nc1ccc(C(F)(F)F)cc1-c1cc(C(F)(F)F)ncn1)=C2O [Example 157, (4aR)-1-[[2,3-Difluoro-4-(2-morpholin-4-ylethoxy)phenyl]methyl]-4-hydroxy-4a-methyl-2-oxo-N-[4-(trifluoromethyl)-2-[6-(trifluoromethyl)pyrimidin-4-yl]phenyl]-6,7-dihydro-5H-pyrrolo [1,2-b]pyridazine-3-carboxamide]
3.6 | 19.5 | 10.4 | – | CN1N(Cc2ccc(OCCCCC(=O)O)c(F)c2F)C(=O)C(C(=O)Nc2ccc(C(F)(F)F)cc2-c2cc(C(F)(F)F)ncn2)=C(O)C12CCCC2 [Example 333, 5-[2,3-Difluoro-4-[[10-hydroxy-6-methyl-8-oxo-9-[[4-(trifluoromethyl)-2-[6-(trifluoromethyl)pyrimidin-4-yl]phenyl]carbamoyl]-6,7-diazaspiro[4.5]dec-9-en-7-yl]methyl]phenoxy]pentanoic acid]
1.9 | – | 1.2 | 4.6 | CN(C)CC(C)(C)COc1ccc(CN2C(=O)C(C(=O)Nc3ccc(C(F)(F)F)cc3-c3cc(C(F)(F)F)ncn3)=C(O)C3(CCCC3)N2C)c(F)c1F [Example 414, 7-(4-(3-(Dimethylamino)-2,2-dimethylpropoxy)-2,3-difluorobenzyl)-10-hydroxy-6-methyl-8-oxo-N-(4-(tri-fluoromethyl)-2-(6-(trifluoromethyl)pyrimidin-4-yl)phenyl)-6,7-diazaspiro [4.5]dec-9-ene-9-carboxamide]

SMILES | IC50 (human PiT-1) [µM] | IC50 (human NaPi-IIb; read-out: IC50) [µM] | IC50 (human PiT-2) [µM] | IC50 (human NaPi-IIb; read-out: IC50 against 33PO4 uptake into human NaPi-IIb-expressing cells) [µM]
C[C@]12CCCN1N(Cc1ccc(OCCCCOC[C@H](O)CO)c(F)c1F)C(=O)C(C(=O)Nc1ccc(C(F)(F)F)cc1-c1cc(C(F)(F)F)ncn1)=C2O [Example 152, (4aR)-1-[[4-[4-[(2R)-2,3-Dihydroxypropoxy]butoxy]-2,3-difluorophenyl]methyl]-4-hydroxy-4a-methyl-2-oxo-N-[4-(trifluoromethyl)-2-[6-(trifluoromethyl)pyrimidin-4-yl]phenyl]-6,7-dihydro-5H-pyrrolo [1,2-b]pyridazine-3-carboxamide] | 5.3 | 20.6 | 3.5 | –
